This note sets out measurements from ChEMBL document CHEMBL1201862, “PubChem BioAssay data set” (2004).

Test systems include SW-620; SK-MEL-28; Malme-3M; TK-10; UO-31; 786-0; U-251; SF-295; SN12C; HL-60; OVCAR-5; NCI-H226; HOP-92; SF-268; NCI-H460; CAKI-1; OVCAR-8; SNB-75; HCC 2998; A498.
Holding throughout (test): NCI-60 cell line screen, 48 h

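Grown in 96-well plates, cells were treated for 48 hours with each compound at five concentrations. Insufficient inhibition: endpoint recorded as highest concentration tested. GI50 is the concentration that inhibits growth by half.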 Calls of active or inactive are those of the source. Rule as the data show it: active = GI50 up to about 1.1 µM and inactive = higher. A value given as a limit tells only on which side of the number the result lay.

Turning to `CN1C(C)(C)CC(=O)C(Br)C1(C)C` (stereo unspecified), the GI50 with SW-620, with SK-MEL-28, in the assay on Malme-3M, in the assay with TK-10, in the assay on UO-31 and in the assay with 786-0 was > 100 µM (inactive) throughout. Besides, the GI50 in the assay on U-251, in the assay on SF-295, with SN12C, with HL-60, in the assay with OVCAR-5 and with NCI-H226 was > 100 µM (inactive) in each case. In addition, the GI50 in the assay with HOP-92 is > 100 µM (inactive); in the assay on SF-268, > 100 µM (inactive); in the assay with NCI-H460 it was > 100 µM (inactive); with CAKI-1, > 100 µM (inactive); with OVCAR-8, > 100 µM (inactive); in the assay on SNB-75 it was 61.8 µM (inactive).
For the molecule `COC(O)C(=O)c1c2c(cc3c1CCC3)CCCC2` (stereo unspecified), the GI50 with SW-620 is 3.44 µM (inactive); with SK-MEL-28 it was 9.48 µM (inactive); in the assay on Malme-3M it was 14 µM (inactive); in the assay with TK-10, 16.3 µM (inactive); with HCC 2998, 1.97 µM (inactive); in the assay on UO-31, 17.7 µM (inactive). Moreover, the GI50 in the assay on 786-0 was 14.1 µM (inactive); in the assay with U-251, 14 µM (inactive); in the assay with SF-295 it was 10.5 µM (inactive); with SN12C, 4.66 µM (inactive); with A498, 13.5 µM (inactive); in the assay with HL-60, 1.56 µM (inactive). Also, the GI50 is 18.1 µM (inactive) with OVCAR-5; 16.5 µM (inactive) with NCI-H226; 15.2 µM (inactive) with SF-268; 7.5 µM (inactive) with NCI-H460; 14.7 µM (inactive) in the assay on CAKI-1; 7.87 µM (inactive) with OVCAR-8. Besides, the GI50 in the assay on SNB-75 is 8.17 µM (inactive).
As for `Cc1nc2ccccc2n1Cc1nnc2n1N=C(c1ccccc1)CS2`, the GI50 in the assay with SW-620 was 34.4 µM (inactive); in the assay on SK-MEL-28 it was 50.1 µM (inactive); in the assay on Malme-3M, 49.9 µM (inactive); in the assay with TK-10, 40.1 µM (inactive); in the assay with HCC 2998, 21.4 µM (inactive); in the assay with UO-31, 38.2 µM (inactive). In addition, the GI50 in the assay on 786-0 is 44 µM (inactive); in the assay with U-251 it was 25.1 µM (inactive); with SF-295, 43.1 µM (inactive); with SN12C, 36.6 µM (inactive); in the assay with A498, 43.8 µM (inactive); in the assay on HL-60, 29.2 µM (inactive). In addition, the GI50 in the assay on OVCAR-5 is 53.3 µM (inactive); with NCI-H226, > 100 µM (inactive); in the assay with SF-268, 40.9 µM (inactive); in the assay with NCI-H460, 33.5 µM (inactive); in the assay on CAKI-1 it was 37.2 µM (inactive); in the assay on SNB-75, 18 µM (inactive).
`Cc1nc2[nH]ncn2c(=O)c1CCCl`: the GI50 with SW-620, with SK-MEL-28, in the assay with Malme-3M, with TK-10, in the assay on HCC 2998 and in the assay on UO-31 was > 10 µM (inactive) throughout. Besides, the GI50 in the assay with U-251, with SN12C, with A498, in the assay on HL-60, in the assay with OVCAR-5 and with NCI-H226 was > 10 µM (inactive) throughout. Besides, the GI50 in the assay on SF-268, in the assay with NCI-H460, in the assay on CAKI-1, in the assay on OVCAR-8 and with SNB-75 was > 10 µM (inactive) throughout.
With `COc1ccc(C2C=C(c3ccc(C)cc3)N(c3ccc(OC)cc3[N+](=O)[O-])C3C(=O)OC(=O)C23)c(OC)c1` (stereo unspecified), the GI50 in the assay with SW-620 was 28.6 µM (inactive); with SK-MEL-28 it was > 100 µM (inactive); in the assay with Malme-3M it was 11.1 µM (inactive); with TK-10 it was 47.5 µM (inactive); in the assay with HCC 2998 it was 29.9 µM (inactive); in the assay on 786-0, 30.8 µM (inactive). The GI50 with U-251 is 45.9 µM (inactive); with SF-295 it was 43.9 µM (inactive); in the assay with A498 it was 67 µM (inactive); in the assay with HL-60, 31.8 µM (inactive); in the assay with OVCAR-5, 48.3 µM (inactive); with NCI-H226 it was 31.5 µM (inactive). The GI50 is 18.5 µM (inactive) with SF-268; 71.3 µM (inactive) in the assay on NCI-H460; 37.3 µM (inactive) with CAKI-1; 16.2 µM (inactive) in the assay with OVCAR-8; 20.2 µM (inactive) with SNB-75.
Take `Cn1c(CO)ccc1-c1ccc(-c2ccc(CO)[se]2)[se]1`: the GI50 was 1.58 µM (inactive) in the assay with SW-620; 17 µM (inactive) in the assay on SK-MEL-28; 4.15 µM (inactive) with Malme-3M; 0.0376 µM (active) in the assay with TK-10; 0.705 µM (active) in the assay on HCC 2998; > 100 µM (inactive) in the assay with UO-31. In addition, the GI50 in the assay on 786-0 is 9.04 µM (inactive); in the assay with U-251, 0.528 µM (active); with SF-295 it was > 76.4 µM (inactive); in the assay with SN12C, 10.6 µM (inactive); in the assay with A498 it was 0.023 µM (active); in the assay on HL-60 it was 7.91 µM (inactive). Moreover, the GI50 with NCI-H226 is 0.408 µM (active); in the assay on SF-268, > 78.5 µM (inactive); in the assay on NCI-H460, 18.4 µM (inactive); with CAKI-1, 0.0176 µM (active); in the assay with OVCAR-8, 6.89 µM (inactive); with SNB-75, > 100 µM (inactive).
Consider `Cc1cc(N(CCC#N)CCC#N)ccc1C(/N=N/c1ccc(Cl)cc1)=N\NC(=O)c1ccccc1`, for which the GI50 in the assay on Malme-3M is 20.4 µM (inactive); with TK-10, 60.5 µM (inactive); in the assay on HCC 2998, 31 µM (inactive); in the assay on UO-31, 67.6 µM (inactive); in the assay on 786-0 it was 34.6 µM (inactive); with U-251, 40.7 µM (inactive). Also, the GI50 is 9.23 µM (inactive) with SF-295; 44.2 µM (inactive) in the assay on SN12C; 13.6 µM (inactive) in the assay with A498; 25.5 µM (inactive) in the assay on HL-60; > 100 µM (inactive) with OVCAR-5; 31.3 µM (inactive) in the assay with NCI-H226. Besides, the GI50 with SF-268 is 41.9 µM (inactive); in the assay on NCI-H460, 39.7 µM (inactive); with CAKI-1, 98.9 µM (inactive); with OVCAR-8, 42.1 µM (inactive); with SNB-75 it was 49.5 µM (inactive).
For the molecule `CC1=NNC(=O)C2CCC(=O)N12` (stereo unspecified), the GI50 with SW-620, in the assay on SK-MEL-28, with Malme-3M, in the assay with TK-10, with HCC 2998 and with UO-31 was > 100 µM (inactive) each time. Moreover, the GI50 with 786-0, in the assay with U-251, with SN12C, in the assay on A498, in the assay on HL-60 and with NCI-H226 was > 100 µM (inactive) throughout. In addition, the GI50 in the assay on SF-268, in the assay with NCI-H460, in the assay with CAKI-1, in the assay with OVCAR-8 and with SNB-75 was > 100 µM (inactive) in each case.
